Measured values as given in patent publication US20230310654A1 (priority 2020, published 2023).

Assays:
male cynomolgus monkeys = conditions: cynomolgus monkey, in vivo
CBE mouse model = conditions: in vivo
juvenile mice = conditions: mouse, in vivo

| Compound | effect on safety or biodistribution of PR001A (male cynomolgus monkeys) | adverse effects in peripheral tissues (CBE mouse model) | inhibition of PR001A-encoded and endogenous GCase activity by CBE treatment (CBE mouse model) | reduction of effective GCase activity in tissues following treatment with CBE (CBE mouse model) | lethality (mice died by P27) (juvenile mice) | body weight (juvenile mice; ip) |
| --- | --- | --- | --- | --- | --- | --- |
| CO[C@H]1C[C@@H]2CC[C@@H](C)[C@@](O)(O2)C(=O)C(=O)N2CCCC[C@H]2C(=O)O[C@H]([C@H](C)C[C@@H]2CC[C@@H](O)[C@H](OC)C2)CC(=O)[C@H](C)/C=C(\C)[C@@H](O)[C@@H](OC)C(=O)[C@H](C)C[C@H](C)/C=C/C=C/C=C/1C [rapamycin] | did not appear to have any effect |  |  |  |  |  |
| conduritol-β-epoxide [CBE] |  | No adverse effects | approximately 50% | up to 60% | 5 of the 8 | failure to gain weight |
